Starred links: 1 amine or outer side, 2 acyl side, 3 side chain; linkers in the order of their positions; H or OH if unused. Positions of bridges follow the written chain, without caps; N, C: chain ends. Non-standard residues stand in square brackets, D forms with d. Residues, ends and D or L forms follow the SMILES beside them. No end group written: not given here. *: point of attachment. Leu(3R-OH,Nα-propionyl) = CCC(=O)N[C@H](C(=O)*)[C@H](O)C(C)C; X1 = CC(C)[C@@H](O[*:3])[C@H](N[*:1])C(=O)[*:2]; NMeT = CN[C@H](C(=O)O)[C@@H](C)O; dPhLac = O=C(O)[C@H](O)Cc1ccccc1; NMeA = CN[C@@H](C)C(=O)O; NMeDha = C=C(NC)C(=O)O

Test [1] concerns the target T1, AT1R (Homo sapiens, UniProt P30556).
T1 sequence (P30556 with tags, fused parts or gaps): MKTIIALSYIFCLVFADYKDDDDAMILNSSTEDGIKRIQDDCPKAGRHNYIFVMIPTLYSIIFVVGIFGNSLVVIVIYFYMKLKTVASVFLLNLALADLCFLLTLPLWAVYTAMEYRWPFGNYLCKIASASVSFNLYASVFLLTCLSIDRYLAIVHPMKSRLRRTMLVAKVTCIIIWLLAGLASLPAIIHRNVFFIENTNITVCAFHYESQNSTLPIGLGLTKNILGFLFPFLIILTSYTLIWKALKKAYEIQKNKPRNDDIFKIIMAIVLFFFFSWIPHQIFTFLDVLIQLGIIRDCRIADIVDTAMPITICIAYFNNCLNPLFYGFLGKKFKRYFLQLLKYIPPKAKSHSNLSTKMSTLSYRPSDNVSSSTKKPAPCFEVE
Nature of the test: AT1R sorting to rab11 vesicles BRET (AT1R-RlucII/rGFP-rab11). It counts as cell-based. Set-up: signal peptide-Flag-human AT1R (spFlag-AT1R); signal peptide (N); expressed in transfected cells; host or cells: HEK293SL (HEK293 for the screen). How it is done: BRET measurements for FIGS. 1B to 9D, 25D to 25F. The following day of transfection, cells were detached and replated onto poly-ornithine coated white 96-well plate at a density of 25,000 cells per well. The next day, cells were washed once with pre-warmed Tyrode's buffer (140 mM NaCl, 2.7 mM KCl, 1 mM CaCl2, 12 mM NaHCO3, 5.6 mM D-glucose, 0.5 mM MgCl2, 0.37 mM NaH2PO4, 25 mM HEPES, pH 7.4), and then stimulated with either various concentrations of ligands in Tyrode's buffer for the indicated time, or single concentration of ligands for various times at 37° C. For recycling experiment, after stimulating the cells with the ligands for 30 min at 37° C., they were washed either three times with ice-cold Tyrode's buffer or once with Tyrode's buffer/three times with acid (50 mM sodium citrate, pH 4.0)/two times with Tyrode's buffer. All the washing steps were performed on ice. Cells were then further incubated with Tyrode's buffer at 37° C. in a water bath for 45 min. […] Measurements were performed by using Synergy2 (BioTek®) microplate reader with a filter set of 410±80 nm and 515±30 nm for detecting the RlucII Renilla luciferase (donor) and GFP10 or rGFP (acceptor) light emissions, respectively. The BRET signal was determined by calculating the ratio of the light intensity emitted by the GFP10 or rGFP over the light intensity emitted by the RlucII. […]
(In general: Bioluminescence resonance energy transfer reports proximity on the nanometre scale.)

In test [2] the target is T1, AT1R. The test can be described thus: AT1R sorting to rab4 vesicles BRET (AT1R-RlucII/rGFP-rab4). Set-up: expressed in transfected cells; host or cells: HEK293SL (HEK293 for the screen). It counts as cell-based. On the procedure:
BRET measurements for FIGS. 1B to 9D, 25D to 25F. The following day of transfection, cells were detached and replated onto poly-ornithine coated white 96-well plate at a density of 25,000 cells per well. The next day, cells were washed once with pre-warmed Tyrode's buffer (140 mM NaCl, 2.7 mM KCl, 1 mM CaCl2, 12 mM NaHCO3, 5.6 mM D-glucose, 0.5 mM MgCl2, 0.37 mM NaH2PO4, 25 mM HEPES, pH 7.4), and then stimulated with either various concentrations of ligands in Tyrode's buffer for the indicated time, or single concentration of ligands for various times at 37° C. For recycling experiment, after stimulating the cells with the ligands for 30 min at 37° C., they were washed either three times with ice-cold Tyrode's buffer or once with Tyrode's buffer/three times with acid (50 mM sodium citrate, pH 4.0)/two times with Tyrode's buffer. All the washing steps were performed on ice. […] The cell-permeable substrate, coelenterazine 400a was added at a final concentration of 5 μM in Tyrode's buffer 3-4 min before BRET measurements. […] The BRET signal was determined by calculating the ratio of the light intensity emitted by the GFP10 or rGFP over the light intensity emitted by the RlucII. All the BRET measurements were performed in triplicate at 37° C.

As to `C=C1C(=O)N[C@@H](C)C(=O)N(C)[C@@H](C)C(=O)N[C@@H]([C@H](OC(=O)[C@@H](NC(=O)CC)[C@H](O)C(C)C)C(C)C)C(=O)N(C)[C@@H]([C@@H](C)OC)C(=O)O[C@H](C(C)C)[C@H](NC(C)=O)C(=O)O[C@H](Cc2ccccc2)C(=O)N1C` [Ubo-QIC] (Ac-[X1][dPhLac][NMeDha]A[NMeA][X1](Leu(3R-OH,Nα-propionyl))[NMeT](Me); ester 1-C), in test [1] (100 nM Ubo, 100 nM AngII 30 min), the “effect on AngII-bound AT1R in Rab11 vesicles” value is “increased AngII-bound AT1R in Rab 4 and Rab11 vesicles”. Also, in test [2] (100 nM Ubo, 100 nM AngII 10 min), the “effect on AngII-bound AT1R in Rab4 vesicles” value was “increased AngII-bound AT1R in Rab 4 and Rab11 vesicles”.

Take “DRVYVHPG [DVG, [Asp^1,Val^5, Gly^8]-AngII]”: the “BRET signal relative to AngII” value in test [1] (100 nM SI, 1 μM DVG) is reported as “overall higher BRET signals”. Further, the “time at which BRET signal plateaued” value in test [2] (100 nM AngII, 100 nM SI, 1 μM DVG) was 10 min.

Values taken from patent publication US10584159B2, “Renilla based biosensors for monitoring biomolecule localization and trafficking in cells” (The Royal Institution for the Advancement of …, priority 2014, dated 2020).
